Laboratory results from patent publication US20070072222A1, “FABP4 as biomarker for toxic effect” (priority 2005, published 2007).

Tests used:
[1] = system: rat FABP4 (SEQ. ID NO: 2); assay: FABP4 gene expression in rat liver (Affymetrix microarray RG U34A); type: in vivo, Wistar rats; settings: for FABP4 expression relative to time matched vehicle control, Affymetrix result (Fold change): rat liver
Experimental: (§1) The expression levels of FABP4 of the mice (SEQ. ID NO: 3) were measured using Affymetrix microarrays (MEA 230 plus, probe sets: 1417023_a_at, 1424155_at, 1425809_at, 1451263_a_at) or Applied Biosystems Assays on Demand (assay ID: Mm00445880_ml). The expression levels of FABP4 of the rat (SEQ. ID NO: 2) were measured using Affymetrix microarrays (RG U34A, probe set: rc_AI169612_at) or Applied Biosystems Assays on Demand (assay ID: Rn00670361_ml). The expression levels of FABP4 of the monkeys were not measured.
(§2) Wistar rats (RCC Ltd, Füllinsdorf): • treatment with INDOMETHACIN (1-(4-Chlorobenzoyl)-5-methoxy-2-methyl-3-indoleacetic acid, Sigma I7378), single dose p.o. (orally); doses were 0, 2, 10 and 20 mg/kg • Treatment with INDOMETHACIN (1-(4-Chlorobenzoyl)-5-methoxy-2-methyl-3-indoleacetic acid, Sigma I7378) for 7 days; doses were 0, 2, and 5 mg/kg/day INDOMETHACIN was dissolved in corn oil. Treated animals were dosed orally (p.o.). The expression levels of FABP4 of the rat (SEQ. ID NO: 2) were measured using Affymetrix microarrays (RG U34A, probe sets: rc_AI169612_at) or Applied Biosystems Assays on Demand (assay ID: Rn00670361_ml).

[2] = system: rat FABP4 (SEQ. ID NO: 2); assay: FABP4 mRNA expression in rat liver by PCR (Applied Biosystems Assays on Demand); type: in vivo, Wistar rats
Experimental: as §1, §2

[3] = system: livers; assay: Liver histopathology and clinical biochemistry in indomethacin treated rats; type: in vivo, Wistar rats
Experimental: as §2

[4] = system: mice; assay: Oral repeat-dose toxicity study in mice; type: in vivo, mouse (CD-1, C57BL6)
Experimental: (§3) CD-1 mice (Charles River Laboratories, UK): • treatment with 3-{1-[2-(2-CHLORO-PHENYL)-5-METHYL-OXAZOL-4-YLMETHYL]-1H-INDOL-5-YL}-2-ETHOXY-PROPIONIC ACID for 1 day; doses were 0, 0.2 and 3 mg/kg • treatment with 3-{1-[2-(2-CHLORO-PHENYL)-5-METHYL-OXAZOL-4-YLMETHYL]-1H-INDOL-5-YL}-2-ETHOXY-PROPIONIC ACID for 10 days; doses were 0, 0.2 and 3 mg/kg • treatment with 3-{1-[2-(2-CHLORO-PHENYL)-5-METHYL-OXAZOL-4-YLMETHYL]-1H-INDOL-5-YL}-2-ETHOXY-PROPIONIC ACID for 14 days; doses were 0, 0.6 and 15 mg/kg
(§4) C57BL6 mice (RCC Ltd, Füllinsdorf): • treatment with 3-{1-[2-(2-CHLORO-PHENYL)-5-METHYL-OXAZOL-4-YLMETHYL]-1H-INDOL-5-YL}-2-ETHOXY-PROPIONIC ACID for 1 day; doses were 0, 0.2 and 3 mg/kg • treatment with 3-{1-[2-(2-CHLORO-PHENYL)-5-METHYL-OXAZOL-4-YLMETHYL]-1H-INDOL-5-YL}-2-ETHOXY-PROPIONIC ACID for 10 days; doses were 0, 0.2 and 3 mg/kg
(§5) Cynomolgus Monkey (macaca fascicularis): • treatment with 3-{1-[2-(2-CHLORO-PHENYL)-5-METHYL-OXAZOL-4-YLMETHYL]-1H-INDOL-5-YL}-2-ETHOXY-PROPIONIC ACID for 28 days; doses were 0, 0.015, 0.09 and 0.31 mg/kg • Treatment with 3-{1-[2-(2-CHLORO-PHENYL)-5-METHYL-OXAZOL-4-YLMETHYL]-1H-INDOL-5-YL}-2-ETHOXY-PROPIONIC ACID for 16 weeks; doses were […], 0.1, 0.3 and 1 mg/kg 3-{1-[2-(2-CHLORO-PHENYL)-5-METHYL-OXAZOL-4-YLMETHYL]-1H-INDOL-5-YL}-2-ETHOXY-PROPIONIC ACID was dissolved in 20% propylene glycol/phosphate buffer, pH8. Treated animals were dosed orally (p.o.).

[5] = system: rat tissue (liver, heart, skeletal muscle, Brown adipose tissue); assay: Oral repeat-dose toxicity study in rats; type: in vivo, Wistar rats; settings: at similar exposure levels as in mice
Experimental: Wistar rats (RCC Ltd, Füllinsdorf): • treatment with 3-{1-[2-(2-CHLORO-PHENYL)-5-METHYL-OXAZOL-4-YLMETHYL]-1H-INDOL-5-YL}-2-ETHOXY-PROPIONIC ACID for 14 days; doses were 0, 0.3 and 1.2 mg/kg • Treatment with 3-{1-[2-(2-CHLORO-PHENYL)-5-METHYL-OXAZOL-4-YLMETHYL]-1H-INDOL-5-YL}-2-ETHOXY-PROPIONIC ACID for 28 days; doses were 0, 0.1, 0.5 and 2.5 mg/kg
as §5

[6] = system: monkey tissue (liver, heart, skeletal muscle, Brown adipose tissue); assay: Oral repeat-dose toxicity study in monkeys; type: in vivo, Cynomolgus Monkey (macaca fascicularis); settings: at similar exposure levels as in mice
Experimental: as §5

[7] = system: mouse FABP4 (SEQ. ID NO: 3); assay: FABP4 gene expression in mouse liver (Affymetrix microarray MEA 230 plus); type: in vivo, mouse (CD1, C57Bl/6); settings: mice, after p.o. administration
Experimental: as §3, §4, §1

[8] = single dose 20 mg/kg, necropsy 24 hours

lipopolysaccharide
Expression of FABP4 in liver ([1]; rats, after administration): an induction of the expression of FABP4 was also found

COc1ccc2c(c1)c(CC(=O)O)c(C)n2C(=O)c1ccc(Cl)cc1 [indomethacin, 1-(4-Chlorobenzoyl)-5-methoxy-2-methyl-3-indoleacetic acid]
Expression of FABP4 in liver ([1]; Wistar, rat, in vivo): an induction of the expression of FABP4 was also found
FABP4 expression relative to time matched vehicle control, Affymetrix result (Fold change) ([1]; 2 mg/kg/day for 7 days): 1 Fold change
FABP4 expression relative to time matched vehicle control, Affymetrix result (Fold change) ([1]; 5 mg/kg/day for 7 days): 79.59 Fold change
FABP4 expression relative to time matched vehicle control, Affymetrix result (Fold change) ([1]; single dose 2 mg/kg, necropsy 6 hours): 1 Fold change
FABP4 expression relative to time matched vehicle control, Affymetrix result (Fold change) ([1]; single dose 2 mg/kg, necropsy 24 hours): 1 Fold change
FABP4 expression relative to time matched vehicle control, Affymetrix result (Fold change) ([1]; single dose 10 mg/kg, necropsy 6 hours): 1 Fold change
FABP4 expression relative to time matched vehicle control, Affymetrix result (Fold change) ([1]; single dose 10 mg/kg, necropsy 24 hours): 4.13 Fold change
FABP4 expression relative to time matched vehicle control, Affymetrix result (Fold change) ([1]; single dose 20 mg/kg, necropsy 6 hours): 1 Fold change
FABP4 expression relative to time matched vehicle control, Affymetrix result (Fold change) [1, 8]: 8.41 Fold change
Expression of fatty acid binding protein 4 in liver (Affymetrix gene arrays) ([1]; rats, 24 hours after single dose 10 or 20 mg/kg, and 7 consecutive days 5 mg/kg/day): strong induction
FABP4 expression relative to time matched vehicle control, PCR result (Fold change) ([2]; 5 mg/kg/day for 7 days): 26.92 Fold change
FABP4 expression relative to time matched vehicle control, PCR result (Fold change) [2, 8]: 13.68 Fold change
Clinical biochemistry parameters ([3]; especially 10 and 20 mg/kg single dose and 5 mg/kg/day repeated treatment): changes of different clinical biochemistry parameters indicative of liver changes
Liver histopathology ([3]; p.o., dose dependent): Slight histopathological alterations (hepatocellular hypertrophy)
Hepatocellular glycogen deposition ([3]; single administration of 10 or 20 mg/kg or 5 mg/kg/day for 7 consecutive days): Decreased hepatocellular glycogen deposition

ClC(Cl)(Cl)Cl [carbon tetrachloride]
Expression of FABP4 in liver ([1]; rats, after administration): an induction of the expression of FABP4 was also found

CCOC(Cc1ccc2c(ccn2Cc2nc(-c3ccccc3Cl)oc2C)c1)C(=O)O (stereo not drawn) [3-{1-[2-(2-CHLORO-PHENYL)-5-METHYL-OXAZOL-4-YLMETHYL]-1H-INDOL-5-YL}-2-ETHOXY-PROPIONIC ACID]
Dose at which mortality occurred ([4]; mice, p.o.): ≥ 0.6 mg/kg/day
Exposure at which dose-dependent severe toxicity was found ([4]; mouse, in vivo, po): ≥ 50 × anticipated human exposure
Findings in other tissues ([4]; mouse, in vivo, po): degeneration of heart and skeletal muscle, and brown adipose tissue
Toxicity in tissue (liver, heart, skeletal muscle, brown adipose tissue) [5]: not observed
Toxicity in tissue (liver, heart, skeletal muscle, brown adipose tissue) [6]: not observed
Expression of fatty acid binding protein 4 in liver [7]: strong induction
Expression of FABP4 in liver ([1]; rat, in vivo): not induced
